Results on 1 molecule are retold here after patent US20220047773A1, “SELF-ELIMINATING COATINGS” (Interface Biologics, Inc., priority 2007, published 2022).

This data set in a line: Partitioning in 1-octanol/PBS system. Format: physicochemical. The protocol: The partitioning of Compounds synthesized in Examples 1-13 was measured in a 1-octanol/PBS system. The partitioning correlates with the lipophilicity of the Compounds, and is used to predict the adsorption and distribution of Compounds under investigation. 1-octanol and PBS were thoroughly mixed to provide PBS-saturated 1-octanol in the top phase and 1-octanol-saturated PBS in the bottom phase. Solutions of Compounds 1, 2, 3, 6, 7, 8, 9, 10, 11, 12, 16, PTX, and SIBS (0.05 mL) were added to each vial of 1-octanol/PBS. The vials were rocked for 4 hours, ensuring good contact between the phases. An aliquot of the organic phase from each sample was then analyzed by GPC (THF mobile phase, RI), which had been calibrated using known concentrations of each compound. The area under the RI peak was used to estimate the concentration of each compound in the organic phase. The mass of each Compound was then used to calculate the weight percentage in organic phase by the following formula: (mass of Compound in 1-octanol phase/total mass)×100%. The partition coefficient was calculated according to the following formula: log([Compound in 1-octanol]/[Compound in PBS]). […]

One may read the logD as the decadic logarithm of the distribution of all forms, ionised or not, between an organic phase and buffer at a given pH. The low end stands for a more hydrophilic compound, the high end for a more lipophilic compound. Turning to `CC(=O)O[C@H]1C(=O)[C@@]2(C)[C@H]([C@H](OC(=O)c3ccccc3)[C@]3(O)C[C@H](OC(=O)[C@H](O)[C@@H](NC(=O)c4ccccc4)c4ccccc4)C(C)=C1C3(C)C)[C@]1(OC(C)=O)CO[C@@H]1C[C@@H]2O` [PTX, paclitaxel, reference compound], the logD at 4 h turned out to be 1. Under “1-octanol/PBS, rocked 4 hours, GPC of organic phase”, the “wt % in 1-octanol” value stood at 94%.
